# Laboratory results taken from US9744156B2, “Methods and compositions for enhanced transungual delivery of AR-12” (Arno Therapeutics, Inc., priority 2015, dated 2017).
# Where two headings read alike, the source gives them in different places.
# How the values were obtained:
# [1] = In vitro permeation across cadaver nail plate in modified Franz diffusion cell; assay type: in vitro ADME, human
# Protocol: The permeation study was performed in Franz diffusion cells fitted with nail adapter. The finger nails (from all fingers except the little finger) of human cadavers obtained from ScienceCare were used for the transport studies. The nail plates were cleaned with water, and nail plates of 400-450 micron thickness were selected and visually inspected for presence of any cracks or pores. After mounting on the diffusion cell, the donor as well as the receiver compartments were filled with phosphate buffered saline […] and allowed to equilibrate for 3 hours for complete hydration of the nail plate. The electrical resistivity across the nail plate was measured prior to removal of the buffer to check the intactness of the nail plate after hydration.
# The permeation testing was performed using modified Franz diffusion cell. The cell consisted of two compartments: a (1) a donor compartment for placing the drug solution/formulation and (2) a receiver compartment containing the buffer in which the drug diffuses. A nail holder is placed between the two compartments. The nail holder is curved to accommodate the contour of nail plate and secures the nail between the upper and lower part of the holder.
# The donor compartment was filled with 500 microliters of drug solution (50 mg/ml) prepared in ethyl alcohol. For the control sample, no enhancer was incorporated. In the test cells, the enhancer was incorporated (5% PEG or 5% dexpanthenol or both). The donor compartment was covered with parafilm to minimize the loss of solvent. The drug solution was removed every 2 hours, the donor compartment was washed two times with 500 microliters of alcohol, and fresh drug solution (50 mg/ml) was placed in the donor compartment. […] The receiver compartment fluid was sampled at predetermined time points (e.g., 0, 12, 24, 36, 48, 60, 72, 84, 96, 108, 120, 132, 144, 156, 192, 204, […]) and the amount of drug permeated across the nail plate was quantitated by high pressure liquid chromatography.
# [2] = 5% enhancer in 5% w/v AR-12 solution in ethanol, 24 h; FIG. 1
molecule,measurement,setting,value
"NCC(=O)Nc1ccc(-n2nc(C(F)(F)F)cc2-c2ccc3c(ccc4ccccc43)c2)cc1 [AR-12, 2-amino-N-(4-(5-(phenanthren-2-yl)-3-(trifluoromethyl)-1H-pyrazol-1-yl)phenyl)acetamide]",amount of drug permeated in a one week period across the nail plate,"[1]; control, no enhancer, drug solution 50 mg/ml in ethyl alcohol, one week",658 ± 306 ng
CC(C)(CO)[C@@H](O)C(=O)NCCCO [dexpanthenol],suitability as enhancer for trans-ungual delivery of AR-12 (AR-12 accumulated in nail plate),[2],preferred enhancers
same,enhancement of permeation flux of AR-12 across the nail plate,"[1]; 5% enhancer in AR-12 solution (50 mg/ml in ethyl alcohol) versus control without enhancer, one week, FIG. 2",four fold
polyethylene glycol 400 [PEG-400],enhancement of permeation flux of AR-12 across the nail plate,[1],about six fold
